Data: US20210230300A1, “INHIBITORS OF SHP2” (Bayer Aktiengesellschaft, priority 2018, published 2021)
“Also recorded” adds a separate entry of the source. Marks after values point to notes of the source that are not given here.

Key:
[1] = log D; type: physicochemical
[2] = system: Mouse 3 day unilateral ureter obstruction (UUO) model; test: Mouse 3 day unilateral ureter obstruction (UUO) model, macrophage infiltration by flow cytometry (CD45, F4/80); type: in vivo; conditions: 3 day UUO
Experimental: As a placebo, a solution without active ingredient was used (group 2), and a sham operated group with unligated kidney was used as a positive control (group 1)
The infiltration of macrophages in response to the renal injury was measured in a flow cytometry assay with detection antibodies binding to the pan-leukocyte marker CD45, as well as to the macrophage-specific antigen, F4/80.

[3] = system: Mouse 10 day unilateral ureter obstruction (UUO) model; test: Mouse 10 day UUO model, renal mRNA expression of fibrotic markers (TaqMan real time PCR); type: in vivo; conditions: for Col1α1 mRNA expression, percentage vs. placebo / Col3α1 mRNA expression, percentage vs. placebo / Col4α1 mRNA expression, percentage vs. placebo / αSMA mRNA expression, percentage vs. placebo: kidney
Experimental: (§1) The study was performed on male C57/B16J mice (age: 7-8 weeks) that were obtained from Charles River. Mice were anesthetized with continuous inhaled isoflurane, and the left ureter was exposed via a mid-abdominal incision. The mid-ureter was obstructed by two point ligation with silk sutures. The SHAM-operated mouse (n=6) underwent the same procedure except for the obstruction of the left ureter.
(§2) The mice were randomized into four groups (n=10 each group): UUO plus vehicle (10% EtOH/40% PEG/50% water), UUO plus 3 [mg/kg] […] SHP099. Mice were dosed bidaily with vehicle and SHP099. The forth group of mice with UUO was treated once daily with Tivozanib (technical control). At ten days after surgery, mice were euthanized, and kidneys were collected and divided in two parts.
(§3) One part was snap-frozen in liquid nitrogen for RNA analysis. The other part was stored in Davidson's fixative for the preparation of histological sections. Total RNA was isolated from parts of harvested kidneys. Kidney tissue was homogenized and RNA was obtained and transcribed to cDNA. Using TaqMan real time PCR renal mRNA expression of fibrotic markers was analyzed in kidney tissues. For the assessment of fibrosis on the protein level paraffin tissue sections were stained with alpha-smooth muscle actin (αSMA) and Sirius Red/Fast Green Collagen Stainings using standard procedures.
(§4) All data are expressed as means±S.D. Differences between groups were analyzed by one-way ANOVA with Dunnett's corrections for multiple comparisons. Statistical significance was defined as p<0.05.
(§5) After 10 days, the weight of the kidneys was measured, and RNA-markers αSMA, Col1α1, Col3α1, Col4α1 were measured with RT PCR. Further, histological measurements of αSMA (Alpha smooth muscle actin) and Collagen (SR/FG) were carried out.

[4] = system: Mouse 10 day unilateral ureter obstruction (UUO) model; test: Mouse 10 day UUO model, histology (αSMA and Sirius Red/Fast Green collagen staining); type: in vivo
Experimental: as §1, §2, §3
Quantitative measurements of alpha-smooth muscle actin (αSMA)-positive as well as Sirius Red (Collagen) positive areas within the kidneys were obtained by computer image analysis using the Axio Scan Z1 (Zeiss) microscope and the Zen software.
as §4, §5

[5] = system: mouse renal ischemia reperfusion injury (IRI) model; test: Mouse uninephrectomy/renal ischemia reperfusion injury (uIRI) model; type: in vivo; conditions: 30 [mg/kg] SHP099 p.o. BID
Experimental: Experiments indicative for acute kidney diseases were carried out in a uninephrectomy/renal ischemia reperfusion injury (uIRI) model (example 3), as e.g. disclosed in Skrypnyk et al (2013).
In a mouse renal ischemia reperfusion injury (IRI) model, uninephrectomy (UNX) with unilateral renal ischemia (RI), was carried out. Therein, one kidney is removed and the remaining kidney undergoes ischemia/reprefusion via renal artery claming, Animals were then treated according to the following groups: […]

[6] = SHP099 3 and 30 mg/kg bidaily, result in words
[7] = Tivozanib once daily (technical control)

**Q.** What does the source list for `CC1(N)CCN(c2cnc(-c3cccc(Cl)c3Cl)c(N)n2)CC1` [SHP099]?
**A.** log D [1]: 1.7; macrophage infiltration ([2]; 100 mg/kg SHP099 BID p.o.): significant, dose-dependent reduction; collagen RNA expression in kidney (Collagen 1a1, 3a1, 4a1) [3, 6]: strong and very significant reduction; also recorded: dose-dependent reduction; αSMA RNA expression in kidney [3, 6]: strong and very significant reduction; also recorded: dose-dependent reduction; Col1α1 mRNA expression, percentage vs. placebo ([3]; 3 [mg/kg] SHP099 bidaily): 77%; Col3α1 mRNA expression, percentage vs. placebo ([3]; 3 [mg/kg] SHP099 bidaily): 82%; Col4α1 mRNA expression, percentage vs. placebo ([3]; 3 [mg/kg] SHP099 bidaily): 85%; αSMA mRNA expression, percentage vs. placebo ([3]; 3 [mg/kg] SHP099 bidaily): 81%; Col1α1 mRNA expression, percentage vs. placebo ([3]; 30 [mg/kg] SHP099 bidaily): 51%; Col3α1 mRNA expression, percentage vs. placebo ([3]; 30 [mg/kg] SHP099 bidaily): 54%; Col4α1 mRNA expression, percentage vs. placebo ([3]; 30 [mg/kg] SHP099 bidaily): 56%; αSMA mRNA expression, percentage vs. placebo ([3]; 30 [mg/kg] SHP099 bidaily): 47%; αSMA-positive area within the obstructed kidney ([4]; 3 [mg/kg] SHP099 bidaily): significant reduction; collagen deposition in kidneys ([4]; SHP099 treated, compared to untreated or Tivozanib treated mice, dose not stated): strong and significant reduction; aSMA-positive area in kidneys ([4]; SHP099 treated, dose not stated): strong and significant reduction; Collagen content (SR/FG staining) ([4]; both dosages of SHP099 (3 and 30 mg/kg bidaily)): dose dependently and significantly reduced; podocyte marker NHPS1 expression [5]: reproducible and strong effects; serum creatinine [5]: robust reduction; serum urea [5]: mild reduction

**Q.** What does the source list for `COc1cc2nccc(Oc3ccc(NC(=O)Nc4cc(C)on4)c(Cl)c3)c2cc1OC` [Tivozanib]?
**A.** macrophage infiltration ([2]; 3 mg/kg Tivozanib QD p.o., in comparison with SHP099): weaker effects; Col1α1 mRNA expression, percentage vs. placebo [3, 7]: 62%; Col3α1 mRNA expression, percentage vs. placebo [3, 7]: 76%; Col4α1 mRNA expression, percentage vs. placebo [3, 7]: 71%; αSMA mRNA expression, percentage vs. placebo [3, 7]: 64* %; Collagen content (SR/FG staining) [4, 7]: significantly reduced; αSMA-positive area within the obstructed kidney [4, 7]: significantly reduced
